Measurements as given in patent publication US20080132505A1 (Glaxo Group Limited, priority 2004, published 2008).
Counter-ions that a name gives are not always drawn. Like-named read-outs stand apart in the source and are kept apart here.

Molecular target: human cannabinoid CB2 receptor (Homo sapiens, UniProt P34972)
Test: Cannabinoid CB2 receptor agonist activity (yeast reporter assay, FDGlu fluorescence)
Assay type: cell-based
Details: for Emax: read-out: efficacy value (Emax relative to HU210) at the cloned human cannabinoid CB2 receptor
How it was run: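 S. cerevisiae MMY23 expressing human CB2 with a Gpa1/Gαi3 chimeric G-protein, grown 24 h at 30 °C with agonist (1% DMSO) in selective media containing 10 mM 3-aminotriazole and FDGlu, pH 7.0. Fluorescein fluorescence (485/535 nm) fitted by four-parameter curve; Emax and EMR relative to HU210.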

[1] = read-out: EC50 value at the cloned human cannabinoid CB2 receptor
[2] = EC50 value at the cloned human cannabinoid CB2 receptor

human cannabinoid CB2 receptor, sequence (P34972 whole entry): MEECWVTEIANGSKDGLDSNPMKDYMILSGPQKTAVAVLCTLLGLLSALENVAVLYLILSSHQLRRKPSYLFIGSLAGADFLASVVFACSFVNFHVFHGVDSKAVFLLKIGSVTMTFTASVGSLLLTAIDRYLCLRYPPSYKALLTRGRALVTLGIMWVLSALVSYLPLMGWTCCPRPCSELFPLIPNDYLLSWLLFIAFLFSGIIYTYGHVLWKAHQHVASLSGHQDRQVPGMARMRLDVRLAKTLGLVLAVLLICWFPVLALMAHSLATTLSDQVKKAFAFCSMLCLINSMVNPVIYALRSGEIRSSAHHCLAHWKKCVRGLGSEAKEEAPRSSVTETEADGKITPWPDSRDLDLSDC

EC50 [1] [nM] | Structure (SMILES) | EC50 [2] [nM] | Emax [%]
20 to 300 | O=C(NCc1ccc(F)cc1)c1cnc(Nc2cccc(Cl)c2)nc1C(F)(F)F [Example 270, 2-(3-Chlorophenylamino)-4-trifluoromethylpyrimidine-5-carboxylic acid 4-fluorobenzyl-amide] | – | –
– | N#Cc1ccc(CNC(=O)c2cnc(Nc3cccc(Cl)c3)nc2C(F)(F)F)cc1 [Example 271, 2-(3-Chlorophenylamino)-4-trifluoromethylpyrimidine-5-carboxylic acid 4-cyanobenzyl-amide] | 20 to 300 | > 50
– | CN(Cc1ccccc1)C(=O)c1cnc(Nc2cccc(Cl)c2Cl)nc1C(F)(F)F [Example 272, 2-(2,3-Dichlorophenylamino)-4-trifluoromethylpyrimidine-5-carboxylic acid N-benzyl-N-methylamide] | 20 to 300 | –
– | O=C(NCc1ccccc1)c1cnc(Nc2ccc(Cl)cc2Cl)nc1C(F)(F)F [Example 273, 2-(2,4-Dichlorophenylamino)-4-trifluoromethylpyrimidine-5-carboxylic acid benzyl-amide] | 20 to 300 | –
– | O=C(NCc1ccccc1)c1cnc(Nc2ccc(Cl)c(Cl)c2)nc1C(F)(F)F [Example 274, 2-(3,4-Dichlorophenylamino)-4-trifluoromethylpyrimidine-5-carboxylic acid benzyl-amide] | 20 to 300 | –
– | CN(Cc1ccccc1)C(=O)c1cnc(Nc2c(Cl)cccc2Cl)nc1C(F)(F)F [Example 275, 2-(2,6-Dichlorophenylamino)-4-trifluoromethylpyrimidine-5-carboxylic acid N-benzyl-N-methylamide] | 20 to 300 | –
– | O=C(NCc1ccccc1)c1cnc(Nc2cc(Cl)cc(Cl)c2)nc1C(F)(F)F [Example 276, 2-(3,5-Dichlorophenylamino)-4-trifluoromethylpyrimidine-5-carboxylic acid benzyl-amide] | 20 to 300 | –
– | O=C(NCc1ccccc1)c1cnc(Nc2cccc(F)c2)nc1C(F)(F)F [Example 277, 2-(3-Fluorophenylamino)-4-trifluoromethylpyrimidine-5-carboxylic acid benzyl-amide] | 20 to 300 | > 50
– | O=C(NCc1ccccc1)c1cnc(Nc2cccc(Br)c2)nc1C(F)(F)F [Example 278, 2-(3-Bromophenylamino)-4-trifluoromethylpyrimidine-5-carboxylic acid benzyl-amide] | 20 to 300 | > 50
– | CN(Cc1ccccc1)C(=O)c1cnc(Nc2cccc(Br)c2)nc1C(F)(F)F [Example 279, 2-(3-Bromophenylamino)-4-trifluoromethylpyrimidine-5-carboxylic acid N-benzyl-N-methylamide] | 20 to 300 | –
– | COc1ccccc1Nc1ncc(C(=O)NCc2ccccc2)c(C(F)(F)F)n1 [Example 280, 2-(2-Methoxyphenylamino)-4-trifluoromethylpyrimidine-5-carboxylic acid benzyl-amide] | 20 to 300 | > 50
– | O=C(NCc1ccncc1)c1cnc(Nc2cccc(Cl)c2Cl)nc1C(F)(F)F [Example 281, 2-(2,3-Dichlorophenylamino)-4-trifluoromethylpyrimidine-5-carboxylic acid (pyridin-4-ylmethyl)amide] | 20 to 300 | –
– | O=C(NCc1ccncc1)c1cnc(Nc2ccc(Cl)cc2Cl)nc1C(F)(F)F [Example 282, 2-(2,4-Dichlorophenylamino)-4-trifluoromethylpyrimidine-5-carboxylic acid (pyridin-4-ylmethyl)amide] | 20 to 300 | –
– | O=C(NCc1ccncc1)c1cnc(Nc2ccc(Cl)c(Cl)c2)nc1C(F)(F)F [Example 283, 2-(3,4-Dichlorophenylamino)-4-trifluoromethylpyrimidine-5-carboxylic acid (pyridin-4-ylmethyl)amide] | 20 to 300 | –
– | O=C(NCc1ccncc1)c1cnc(Nc2cc(Cl)ccc2Cl)nc1C(F)(F)F [Example 284, 2-(2,5-Dichlorophenylamino)-4-trifluoromethylpyrimidine-5-carboxylic acid (pyridin-4-ylmethyl)amide] | 20 to 300 | –
– | O=C(NCc1ccncc1)c1cnc(Nc2cccc(F)c2)nc1C(F)(F)F [Example 285, 2-(3-Fluorophenylamino)-4-trifluoromethylpyrimidine-5-carboxylic acid (pyridin-4-ylmethyl)amide] | 20 to 300 | –
– | O=C(NCc1ccncc1)c1cnc(Nc2cccc(Br)c2)nc1C(F)(F)F [Example 286, 2-(3-Bromophenylamino)-4-trifluoromethylpyrimidine-5-carboxylic acid (pyridin-4-ylmethyl)amide] | 20 to 300 | –
– | O=C(NCc1ccncc1)c1cnc(Nc2cc(Cl)cc(Cl)c2)nc1C(F)(F)F [Example 287, 2-(3,5-Dichlorophenylamino)-4-trifluoromethylprimidine-5-carboxylic acid (pyridin-4-ylmethyl)amide] | 20 to 300 | –

EC50 [1] [nM] | Structure (SMILES) | EC50 [2] [nM] | Emax [%]
– | O=C(NCc1ccc(F)cc1)c1cnc(Nc2cccc(F)c2)nc1C(F)(F)F [Example 288, 2-(3-Fluorophenylamino)-4-trifluoromethylpyrimidine-5-carboxylic acid 4-fluorobenzyl-amide] | 20 to 300 | –
20 to 300 | O=C(NCc1ccc(F)cc1)c1cnc(Nc2cccc(Br)c2)nc1C(F)(F)F [Example 289, 2-(3-Bromophenylamino)-4-trifluoromethylpyrimidine-5-carboxylic acid 4-fluorobenzyl-amide] | – | –
– | O=C(NCc1ccc(F)cc1)c1cnc(Nc2cc(Cl)cc(Cl)c2)nc1C(F)(F)F [Example 290, 2-(3,5-Dichlorophenylamino)-4-trifluoromethylpyrimidine-5-carboxylic acid 4-fluorobenzyl-amide] | 20 to 300 | –
– | N#Cc1ccc(CNC(=O)c2cnc(Nc3cc(Cl)cc(Cl)c3)nc2C(F)(F)F)cc1 [Example 291, 2-(3,5-Dichlorophenylamino)-4-trifluoromethylpyrimidine-5-carboxylic acid 4-cyanobenzylamide] | 20 to 300 | –
– | N#Cc1ccc(Nc2ncc(C(=O)NCc3ccccc3)c(C(F)(F)F)n2)cc1 [Example 292, 2-(4-Cyano-phenylamino)-4-trifluoromethyl-pyrimidine-5-carboxylic acid benzylamide] | 20 to 300 | > 50
– | Cc1cc(CNC(=O)c2cnc(Nc3cccc(Cl)c3)nc2C(F)(F)F)ccn1 [Example 293, 2-(3-Chloro-phenylamino)-4-trifluoromethyl-pyrimidine-5-carboxylic acid (2-methyl-pyridin-4-ylmethyl)-amide hydrochloride] | 20 to 300 | –
– | O=C(NCc1ccnc(F)c1)c1cnc(Nc2cccc(Cl)c2)nc1C(F)(F)F [Example 294, 2-(3-Chloro-phenylamino)-4-trifluoromethyl-pyrimidine-5-carboxylic acid (2-fluoro-pyridin-4-ylmethyl)-amide] | 20 to 300 | –
– | COc1cccc(Nc2ncc(C(=O)NCc3ccccc3)c(C(F)(F)F)n2)c1 [Example 295, 2-(3-Methoxy-phenylamino)-4-trifluoromethyl-pyrimidine-5-carboxylic acid benzylamide] | 300 to 1000 | > 50
300 to 1000 | COc1ccccc1Nc1ncc(C(=O)N(C)Cc2ccccc2)c(C(F)(F)F)n1 [Example 296, 2-(2-Methoxy-phenylamino)-4-trifluoromethyl-pyrimidine-5-carboxylic acid N-benzyl-N-methyl-amide] | – | –
– | COc1cccc(Nc2ncc(C(=O)N(C)Cc3ccccc3)c(C(F)(F)F)n2)c1 [Example 297, 2-(3-Methoxy-phenylamino)-4-trifluoromethyl-pyrimidine-5-carboxylic acid N-benzyl-N-methyl-amide] | 300 to 1000 | > 50
– | O=C(NCc1ccc(Cl)cc1)c1cnc(Nc2cccc(Cl)c2)nc1C(F)(F)F [Example 298, 2-(3-Chloro-phenylamino)-4-trifluoromethyl-pyrimidine-5-carboxylic acid 4-chloro-benzylamide] | 300 to 1000 | > 50
– | CCN(Cc1ccccc1)C(=O)c1cnc(Nc2cccc(Cl)c2)nc1C(F)(F)F [Example 299, 2-(3-Chloro-phenylamino)-4-trifluoromethyl-pyrimidine-5-carboxylic acid N-benzyl-N-ethyl-amide] | 300 to 1000 | > 50
– | O=C(NCc1ccccc1)c1cnc(Nc2cccc(Cl)c2Cl)nc1C(F)(F)F [Example 300, 2-(2,3-Dichloro-phenylamino)-4-trifluoromethyl-pyrimidine-5-carboxylic acid benzylamide] | 300 to 1000 | > 50
– | CN(Cc1ccccc1)C(=O)c1cnc(Nc2cccc(F)c2)nc1C(F)(F)F [Example 301, 2-(3-Fluoro-phenylamino)-4-trifluoromethyl-pyrimidine-5-carboxylic acid N-benzyl-N-methyl-amide] | 300 to 1000 | > 50
– | CC(C)Cc1ccc(CNC(=O)c2cnc(Nc3cccc(Cl)c3)nc2C(F)(F)F)cc1 [Example 302, 2-(3-Chloro-phenylamino)-4-trifluoromethyl-pyrimidine-5-carboxylic acid 4-isobutyl-benzylamide] | 300 to 1000 | > 50
– | Cc1cc(CNC(=O)c2cnc(Nc3cccc(Cl)c3)nc2C(F)(F)F)ccn1 [Example 303, 2-(3-Chloro-phenylamino)-4-trifluoromethyl-pyrimidine-5-carboxylic acid (2-methyl-pyridin-4-ylmethyl)-amide] | 300 to 1000 | –
– | Cc1cc(CNC(=O)c2cnc(Nc3cccc(Br)c3)nc2C(F)(F)F)ccn1 [Example 304, 2-(3-Bromo-phenylamino)-4-trifluoromethyl-pyrimidine-5-carboxylic acid (2-methyl-pyridin-4-ylmethyl)-amide] | 300 to 1000 | > 50
– | CN(Cc1ccccc1)C(=O)c1cnc(Nc2ccccc2Cl)nc1C(F)(F)F [Example 305, 2-(2-Chloro-phenylamino)-4-trifluoromethyl-pyrimidine-5-carboxylic acid N-benzyl-N-methyl-amide] | 300 to 1000 | –
